One assay relates to YAP/TEAD reporter gene. Nature of the assay: YAP/TEAD reporter gene inhibition experiment in SF268-YAP-Luc cells. In kind it is cell-based. The note with it: SF268-YAP-Luc cells, 24 hours, Renila luciferase signal corrected for cell viability; read-out: Activity of each compound in inhibiting the expression of YAP/TEAD reporter gene (grades of IC50 values). The procedure:
In this example, the inhibition of the compound on the target was detected by the signal of the reporter gene in the stable cell line SF268-YAP-Luc containing the YAP/TEAD reporter gene.
A sequence containing 6 tandem YAP/TEAD binding sites and a basal transcription promoter was constructed on the vector pGL4.76 of Promega Company. The constructed reporter gene vector was transfected into SF268 cells (NCI DCTD tumor/cell line repository) and screened with 0.5 μg/mL hygromycin to obtain SF268-YAP-Luc stable strain.
SF268-YAP-Luc cells were seeded into a 96-well plate at a density of 3000 cells per well with a volume of 100 μL per well (cell culture medium composition: RPMI1640 (Gibco-A10491-01)+10% FBS (Gibco-10099-141C)+1% penicillin-streptomycin (5,000 U/mL, Gibco-15070-063)), and the cells were incubated overnight in a 37° C., 5% carbon dioxide incubator.
On the next day, the compounds to be tested were 3-fold diluted, and a total of 8 concentration gradients were set up; a certain volume of DMSO or the compounds to be tested was added to each well, respectively, and 2 replicates were set up for each concentration, and the final concentration of DMSO was controlled to be no higher than 0.5%. The cells were incubated for 24 hours in a 37° C., 5% carbon dioxide incubator. Two identical parallel plates were set up for cell seeding and compound treatment.
Renila-Glo luciferase assay system kit (Promega, E2720) was used to detect the reporter gene signals of the control group and treatment group. 70 μL of Renila-Glo was added to each well, mixed well, and incubated at room temperature for 10 minutes. The signal was read using EnVision® Multilabel Plate Reader (Perkin Elmer).
Cell viability was detected in the control group and treatment group using CellTiter-Glo Luminescent Cell Viability Assay kit (Promega, G7570). 50 μL of CellTiter-Glo was added to each well, mixed well, and incubated at room temperature for 10 minutes. The signal was read using En Vision® Multilabel Plate Reader (Perkin Elmer).
The signal of Renila luciferase after correcting for cell viability was analyzed, and the inhibition rate of the compound on the reporter gene was calculated. The inhibition percentage (%) is calculated by the following formula: […]
Using Graphpad Prism software, the IC50 values for the compounds' inhibitory activity against Renila luciferase signaling were calculated.

In a further assay the test system is MSTO-211H cells. Nature of the assay: Cell proliferation inhibition experiment (CellTiter-Glo). The assay is classed as cell-based. The following applies: 96 hours, read-out: Inhibitory activity of each compound on the proliferation of MSTO-211H cells (grades of IC50 values). The gist of the method: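 MSTO-211H cells (1500/well, RPMI1640 + 10% FBS) were plated overnight at 37° C, 5% CO2, then exposed in duplicate to 9 three-fold compound dilutions (DMSO ≤0.5% final) for 96 hours. Viability was read as CellTiter-Glo luminescence after 10 min at room temperature. IC50 was derived from inhibition of the CTG signal.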

Assay [1] deals with YAP-TEAD protein interaction (His-TEAD1 (209-426) protein, Bio-YAP peptide (60-100)) (Homo sapiens, UniProt P28347). Kind of assay: YAP-TEAD protein interaction HTRF experiment. The note with it: His-TEAD1 (209-426) 10 nM, Bio-YAP peptide 50 nM, read-out: Activity of each compound in blocking YAP-TEAD protein interaction (grades of IC50 values). In kind it is binding. The gist of the method:
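His-TEAD1 (209-426) at 10 nM final was preincubated 20 min at RT with compounds (10-point 3-fold dilutions, duplicates, 1% DMSO), then Bio-YAP peptide, 10 min. Anti-His-Eu cryptate/streptavidin-XL665 added for 1 h at RT; HTRF read at ex 320 nm, Em665/Em620 ratio ×10000, IC50 from % inhibition.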

Here are results for 14 compounds from US20250177408A1, “INHIBITOR OF INTERACTION BETWEEN YAP/TAZ AND TEAD, PREPARATION THEREOF, PHARMACEUTICAL COMPOSITION THEREOF AND USE THEREOF” (ETERN BIOPHARMA (SHANGHAI) CO., LTD., priority 2022, published 2025).

Like-named read-outs stand apart in the source and are kept apart here.

Chain of YAP-TEAD protein interaction (His-TEAD1 (209-426) protein, Bio-YAP peptide (60-100)) (P28347 209-426): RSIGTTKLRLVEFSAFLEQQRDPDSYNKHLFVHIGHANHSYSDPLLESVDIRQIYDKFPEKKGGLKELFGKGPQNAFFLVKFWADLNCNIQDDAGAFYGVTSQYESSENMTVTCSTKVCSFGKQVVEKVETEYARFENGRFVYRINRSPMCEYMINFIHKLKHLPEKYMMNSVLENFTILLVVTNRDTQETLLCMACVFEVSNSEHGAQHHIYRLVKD

Consider `NC(=O)c1cc2c(c(F)c1-c1c(Cl)c(F)cc3c1C[C@](c1ccccc1)([C@@H]1CCCN1)O3)OCCO2` (atropisomer, axis not shown) [Compound 1, 7-((2S,4S)-5-Chloro-6-fluoro-2-phenyl-2-((S)-pyrrolidin-2-yl)-2,3-dihydrobenzofuran-4-yl)-8-fluoro-2,3-dihydrobenzo[b][1,4]dioxine-6-carboxamide], for which the IC50 in the assay with YAP/TEAD reporter gene is below 50 nM; in the assay with MSTO-211H cells (Homo sapiens) it was below 200 nM; in assay [1], below 50 nM.

As for `Cn1cc2c(n1)COc1c-2cc(C(N)=O)c(-c2c(Cl)c(F)cc3c2C[C@](c2ccccc2)([C@@H]2CCCN2)O3)c1F` (atropisomer, axis not shown) [Compound 3, (S)-7-((S)-5-Chloro-6-fluoro-2-phenyl-2-((S)-pyrrolidin-2-yl)-2,3-dihydrobenzofuran-4-yl)-6-fluoro-2-methyl-2,4-dihydrochromeno[3,4-c]pyrazole-8-carboxamide], the IC50 with YAP/TEAD reporter gene is below 50 nM; with MSTO-211H cells (Homo sapiens), below 200 nM; in assay [1], below 50 nM.

Regarding `Cn1cc2c(n1)Oc1c(cc(C(N)=O)c(-c3c(Cl)c(F)cc4c3C[C@](c3ccccc3)([C@@H]3CCCN3)O4)c1F)O2` (atropisomer, axis not shown) [Compound 8, (S)-7-((S)-5-Chloro-6-fluoro-2-phenyl-2-((S)-pyrrolidin-2-yl)-2,3-dihydrobenzofuran-4-yl)-8-fluoro-2-methyl-2H-benzo[5,6][1,4]dioxoino[2,3-c]pyrazole-6-carboxamide], the IC50 with YAP/TEAD reporter gene is below 50 nM; with MSTO-211H cells (Homo sapiens), below 200 nM; in assay [1], below 50 nM.

Turning to `CNC[C@@]1(c2ccccc2)Cc2c(cc(F)c(Cl)c2-c2c(C(N)=O)cn3ccnc3c2F)O1` (atropisomer, axis not shown) [Compound I-1], the values for the IC50 (with YAP/TEAD reporter gene; in the assay with MSTO-211H cells (Homo sapiens); in assay [1]) were below 50 nM, below 200 nM and below 50 nM, respectively.

Take `NC(=O)c1cc2c(c(F)c1-c1c(Cl)c(F)cc3c1C[C@](c1ccccc1)([C@@H]1CCCN1)O3)OCC(=O)N2` (atropisomer, axis not shown) [Compound I-23, (S)-7-((S)-5-Chloro-6-fluoro-2-phenyl-2-((S)-pyrrolidin-2-yl)-2,3-dihydrobenzofuran-4-yl)-8-fluoro-3-oxo-3,4-dihydro-2H-benzo[b][1,4]oxazine-6-carboxamide]: the results for the IC50 (in the assay on YAP/TEAD reporter gene; in the assay with MSTO-211H cells (Homo sapiens); in assay [1]) were 50 to 500 nM, below 200 nM and below 50 nM, respectively.

With `CN1CCOc2c1cc(C(N)=O)c(-c1c(Cl)c(F)cc3c1C[C@](c1ccccc1)([C@@H]1CCCN1)O3)c2F` (atropisomer, axis not shown) [Compound I-24, (S)-7-((S)-5-Chloro-6-fluoro-2-phenyl-2-((S)-pyrrolidin-2-yl)-2,3-dihydrobenzofuran-4-yl)-8-fluoro-4-methyl-3,4-dihydro-2H-benzo[b][1,4]oxazine-6-carboxamide], the results for the IC50 (in the assay with YAP/TEAD reporter gene; in the assay on MSTO-211H cells (Homo sapiens); in assay [1]) were below 50 nM, below 200 nM and below 50 nM, respectively.

Consider `CN1C(=O)COc2c1cc(C(N)=O)c(-c1c(Cl)c(F)cc3c1C[C@](c1ccccc1)([C@@H]1CCCN1)O3)c2F` (atropisomer, axis not shown) [Compound I-25, (S)-7-((S)-5-Chloro-6-fluoro-2-phenyl-2-((S)-pyrrolidin-2-yl)-2,3-dihydrobenzofuran-4-yl)-8-fluoro-4-methyl-3-oxo-3,4-dihydro-2H-benzo[b][1,4]oxazine-6-carboxamide], for which the IC50 in the assay on YAP/TEAD reporter gene was 50 to 500 nM; in the assay with MSTO-211H cells (Homo sapiens), 200 to 500 nM; in assay [1] it was below 50 nM.

In the case of `CC(=O)N1CCOc2c1cc(C(N)=O)c(-c1c(Cl)c(F)cc3c1C[C@](c1ccccc1)([C@@H]1CCCN1)O3)c2F` (atropisomer, axis not shown) [Compound I-27, (S)-4-Acetyl-7-((S)-5-chloro-6-fluoro-2-phenyl-2-((S)-pyrrolidin-2-yl)-2,3-dihydrobenzofuran-4-yl)-8-fluoro-3,4-dihydro-2H-benzo[b][1,4]oxazine-6-carboxamide], the IC50 was below 50 nM with YAP/TEAD reporter gene, 200 to 500 nM with MSTO-211H cells (Homo sapiens) and below 50 nM in assay [1].

With `NC(=O)c1cc2c(c(F)c1-c1c(Cl)c(F)cc3c1C[C@](c1ccccc1)([C@@H]1CCCN1)O3)Oc1c(cnn(C3CC3)c1=O)O2` [Compound 111, (S)-8-((S)-5-Chloro-6-fluoro-2-phenyl-2-((S)-pyrrolidin-2-yl)-2,3-dihydrobenzofuran-4-yl)-2-cyclopropyl-9-fluoro-1-oxo-1,2-dihydrobenzo[5,6][1,4]dioxo[2,3-d]pyridazine-7-carboxamide], the IC50 was below 200 nM with MSTO-211H cells and below 50 nM in assay [1].

For `NC(=O)c1cc2c(c(F)c1-c1c(Cl)c(F)cc3c1C[C@](c1ccccc1)([C@@H]1CCCN1)O3)Oc1cnn(C3CC3)c(=O)c1O2` [Compound 112, (S)-8-((S)-5-Chloro-6-fluoro-2-phenyl-2-((S)-pyrrolidin-2-yl)-2,3-dihydrobenzofuran-4-yl)-3-cyclopropyl-9-fluoro-4-oxo-3,4-dihydrobenzo[5,6][1,4]dioxo[2,3-d]pyridazine-7-carboxamide], the IC50 was 200 to 500 nM with MSTO-211H cells and below 50 nM in assay [1].

Take `CNC(=O)c1cc2c(c(F)c1-c1c(Cl)c(F)cc3c1CC(c1ccccc1)(C1CCCN1)O3)Oc1c(cnn(C)c1=O)O2` [Compound 124, (S)-8-((S)-5-Chloro-6-fluoro-2-phenyl-2-((S)-pyrrolidin-2-yl)-2,3-dihydrobenzofuran-4-yl)-9-fluoro-N,2-dimethyl-1-oxo-1,2-dihydrobenzo[5,6][1,4]dioxo[2,3-d]pyridazine-7-carboxamide]: the IC50 in the assay with MSTO-211H cells (Homo sapiens) was below 200 nM; in assay [1], below 50 nM.

Take `Cn1cnc2c(c1=O)Oc1c(cc(C(N)=O)c(-c3c(Cl)c(F)cc4c3CC(c3ccccc3)(C3CCCN3)O4)c1F)O2` [Compound 126, (S)-7-((S)-5-Chloro-6-fluoro-2-phenyl-2-((S)-pyrrolidin-2-yl)-2,3-dihydrobenzofuran-4-yl)-6-fluoro-3-methyl-4-oxo-3,4,7,8-tetrahydrobenzo[5,6][1,4]dioxo[2,3-d]pyrimidine-8-carboxamide]: the values for the IC50 (with MSTO-211H cells (Homo sapiens); in assay [1]) were below 200 nM and below 50 nM, respectively.

Consider `NC(=O)c1cc2c(c(F)c1-c1c(Cl)c(F)cc3c1CC(c1ccccc1)(C1CCCN1)O3)OCCN2` [Compound I-19, (S)-7-((S)-5-Chloro-6-fluoro-2-phenyl-2-((S)-pyrrolidin-2-yl)-2,3-dihydrobenzofuran-4-yl)-8-fluoro-3,4-dihydro-2H-benzo[b][1,4]oxazine-6-carboxamide], for which the IC50 (in the assay on YAP/TEAD reporter gene; in assay [1]) was below 50 nM each time.

Regarding “(S)-8-((S)-5-Chloro-6-fluoro-2-phenyl-2-((S)-pyrrolidin-2-yl)-2,3-dihydrobenzofuran-4-yl)-9-fluoro-3-methyl-4-oxo-3,4-dihydrobenzo[5,6][1,4]dioxo[2,3-d]pyrimidine-7-carboxamide [Compound 127]”, the IC50 was 200 to 500 nM in the assay with MSTO-211H cells and below 50 nM in assay [1].
